Measured values from the supplement of paper PMC10307832.

What was measured:
Assay in all cases: relative viability (nuclei count vs DMSO), 5 days (fraction); higher = more cells survive
[1] = tested on: A-427
Procedure, shortened: (§1)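 Cells from lung cancer lines were seeded into 1536-well plates and, one day later, dosed by pin tool. Treatments were either a single drug or a fixed dose of an anchor drug with five library-drug doses (not always all listed) in √10 steps. After 5 days, nuclei were stained in a one-step fixation (final 0.05% Triton X-100, 1% formaldehyde, 1 ug/ml Hoechst) and counted on 4× images, and relative viability is the treated-to-vehicle nuclei ratio, as the median of duplicate plates.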

[2] = tested on: BEN
Procedure, shortened: as §1

[3] = tested on: H3255
Procedure, shortened: as §1

[4] = tested on: HCC-15
Procedure, shortened: as §1

[5] = tested on: LC-2-ad
Procedure, shortened: as §1

[6] = tested on: LCLC-97TM1
Procedure, shortened: as §1

[7] = tested on: NCI-H1395
Procedure, shortened: as §1

[8] = tested on: NCI-H1650
Procedure, shortened: as §1

[9] = tested on: NCI-H1651
Procedure, shortened: as §1

[10] = tested on: NCI-H1755
Procedure, shortened: as §1

[11] = tested on: NCI-H1993
Procedure, shortened: as §1

[12] = tested on: NCI-H2009
Procedure, shortened: as §1

[13] = tested on: NCI-H2085
Procedure, shortened: as §1

[14] = tested on: NCI-H23
Procedure, shortened: as §1

[15] = tested on: NCI-H520
Procedure, shortened: as §1

[16] = tested on: NCI-H647
Procedure, shortened: as §1

[17] = tested on: NCI-H650
Procedure, shortened: as §1

[18] = tested on: NCI-H661
Procedure, shortened: as §1

[19] = tested on: NCI-H727
Procedure, shortened: as §1

[20] = tested on: NCI-H838
Procedure, shortened: as §1

[21] = tested on: PC-3 [JPC-3]
Procedure, shortened: as §1

[22] = tested on: RERF-LC-KJ
Procedure, shortened: as §1

[23] = tested on: SK-LU-1
Procedure, shortened: as §1

[24] = tested on: SK-MES-1
Procedure, shortened: as §1

For Nc1cccc2c1CN(C1CCC(=O)NC1=O)C2=O (stereo not drawn) [Lenalidomide] + COc1cc2c(Oc3ccc(NC(=O)C4(C(=O)Nc5ccc(F)cc5)CC4)cc3F)ccnc2cc1OCCCN1CCOCC1 [Foretinib] (partner 0.25 µM), the relative viability ([1]; first compound 0.253 µM) was 1.11, the relative viability ([1]; first compound 0.8 µM) was 0.93 and the relative viability ([1]; first compound 2.53 µM) was 1.13. It also gave a relative viability ([1]; first compound 8 µM) of 1.11, a relative viability ([2]; first compound 0.253 µM) of 0.822 and a relative viability ([2]; first compound 0.8 µM) of 0.583. The relative viability ([2]; first compound 2.53 µM) was 0.812, the relative viability ([2]; first compound 8 µM) was 0.409 and the relative viability ([3]; first compound 0.253 µM) was 0.733. It also gave a relative viability ([3]; first compound 0.8 µM) of 0.825, a relative viability ([3]; first compound 2.53 µM) of 0.95 and a relative viability ([3]; first compound 8 µM) of 0.727. The relative viability ([4]; first compound 0.253 µM) was 1.03, the relative viability ([4]; first compound 0.8 µM) was 1.04 and the relative viability ([4]; first compound 2.53 µM) was 1.17. The relative viability ([4]; first compound 8 µM) was 1.05, the relative viability ([5]; first compound 0.253 µM) was 0.92 and the relative viability ([5]; first compound 2.53 µM) was 1.05. For the same molecule, the relative viability ([5]; first compound 8 µM) was 0.96, the relative viability ([6]; first compound 0.253 µM) was 0.906 and the relative viability ([6]; first compound 0.8 µM) was 0.991. The relative viability ([6]; first compound 2.53 µM) was 1, the relative viability ([6]; first compound 8 µM) was 0.947 and the relative viability ([7]; first compound 0.253 µM) was 0.958. It also gave a relative viability ([7]; first compound 0.8 µM) of 1.09, a relative viability ([7]; first compound 2.53 µM) of 1.11 and a relative viability ([7]; first compound 8 µM) of 0.822. It also gave a relative viability ([8]; first compound 0.8 µM) of 1.46, a relative viability ([8]; first compound 2.53 µM) of 1.18 and a relative viability ([8]; first compound 8 µM) of 1.37. For the same molecule, the relative viability ([9]; first compound 0.253 µM) was 0.837, the relative viability ([9]; first compound 0.8 µM) was 0.963 and the relative viability ([9]; first compound 2.53 µM) was 0.914. The relative viability ([9]; first compound 8 µM) was 0.804, the relative viability ([10]; first compound 0.253 µM) was 0.915 and the relative viability ([10]; first compound 0.8 µM) was 0.904. It also gave a relative viability ([10]; first compound 2.53 µM) of 0.886, a relative viability ([10]; first compound 8 µM) of 0.782 and a relative viability ([11]; first compound 0.253 µM) of 0.739. It also gave a relative viability ([11]; first compound 0.8 µM) of 0.658, a relative viability ([11]; first compound 2.53 µM) of 0.775 and a relative viability ([11]; first compound 8 µM) of 0.707. For the same molecule, the relative viability ([12]; first compound 0.253 µM) was 1.24, the relative viability ([12]; first compound 0.8 µM) was 1.23 and the relative viability ([12]; first compound 2.53 µM) was 1.32. The relative viability ([12]; first compound 8 µM) was 1.22, the relative viability ([13]; first compound 0.253 µM) was 1.04 and the relative viability ([13]; first compound 0.8 µM) was 1.11. For the same molecule, the relative viability ([13]; first compound 2.53 µM) was 0.929, the relative viability ([13]; first compound 8 µM) was 1.07 and the relative viability ([14]; first compound 0.253 µM) was 0.926. For the same molecule, the relative viability ([14]; first compound 0.8 µM) was 1.13, the relative viability ([14]; first compound 2.53 µM) was 0.847 and the relative viability ([14]; first compound 8 µM) was 1.03. For the same molecule, the relative viability ([15]; first compound 0.253 µM) was 0.805, the relative viability ([15]; first compound 0.8 µM) was 0.627 and the relative viability ([15]; first compound 2.53 µM) was 0.875. It also gave a relative viability ([15]; first compound 8 µM) of 0.711, a relative viability ([16]; first compound 0.253 µM) of 0.856 and a relative viability ([16]; first compound 0.8 µM) of 1.12. For the same molecule, the relative viability ([16]; first compound 2.53 µM) was 1.21, the relative viability ([16]; first compound 8 µM) was 1.11 and the relative viability ([17]; first compound 0.253 µM) was 1.02. The relative viability ([17]; first compound 2.53 µM) was 1.14, the relative viability ([17]; first compound 8 µM) was 1.01 and the relative viability ([18]; first compound 0.253 µM) was 0.996. It also gave a relative viability ([18]; first compound 0.8 µM) of 0.983, a relative viability ([18]; first compound 2.53 µM) of 1.01 and a relative viability ([18]; first compound 8 µM) of 0.994. For the same molecule, the relative viability ([19]; first compound 0.253 µM) was 0.904, the relative viability ([19]; first compound 0.8 µM) was 0.929 and the relative viability ([19]; first compound 2.53 µM) was 1. It also gave a relative viability ([19]; first compound 8 µM) of 1.05, a relative viability ([20]; first compound 0.253 µM) of 1.11 and a relative viability ([20]; first compound 0.8 µM) of 0.965. It also gave a relative viability ([20]; first compound 2.53 µM) of 1.15, a relative viability ([20]; first compound 8 µM) of 1.2 and a relative viability ([21]; first compound 0.253 µM) of 1.06. For the same molecule, the relative viability ([21]; first compound 0.8 µM) was 0.974, the relative viability ([21]; first compound 2.53 µM) was 1.17 and the relative viability ([21]; first compound 8 µM) was 1.08. It also gave a relative viability ([22]; first compound 0.253 µM) of 0.891, a relative viability ([22]; first compound 0.8 µM) of 0.886 and a relative viability ([22]; first compound 2.53 µM) of 0.962. It also gave a relative viability ([22]; first compound 8 µM) of 0.793, a relative viability ([23]; first compound 0.253 µM) of 0.71 and a relative viability ([23]; first compound 0.8 µM) of 0.727. It also gave a relative viability ([23]; first compound 2.53 µM) of 1.02, a relative viability ([23]; first compound 8 µM) of 0.802 and a relative viability ([24]; first compound 0.253 µM) of 0.944. It also gave a relative viability ([24]; first compound 0.8 µM) of 0.991, a relative viability ([24]; first compound 2.53 µM) of 1.02 and a relative viability ([24]; first compound 8 µM) of 0.844.
